Laboratory results published in patent US20200247855A1, “THERAPY AND DIAGNOSTICS” (OXFORD UNIVERSITY INNOVATION LIMITED, priority 2017, published 2020).
Residues, ends and D or L forms follow the SMILES beside them. *: point of attachment. FITC = O=C1OC2(c3ccc(O)cc3Oc3cc(O)ccc32)c2ccc(NC(=S)*)cc21

Each compound was assayed against T1, CCL8 (Homo sapiens, UniProt P80075) (assay: Fluorescence polarisation (anisotropy) assay). Conditions: BK1.1FITC Ala mutants, CCL8.
T1 construct: SUMO (in-house protein only) (cleaved yes); made in house; host or cells: Escherichia coli RosettaGami 2 (DE3)
T1 sequence (P80075 24-99): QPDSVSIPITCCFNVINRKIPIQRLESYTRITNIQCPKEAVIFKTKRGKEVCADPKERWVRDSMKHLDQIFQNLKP
Assay type: binding
Source text: FIG. 14. Characterisation of P672_PEP-FITC by fluorescence polarisation. […] Residue C30 was mutated to A to avoid an unpaired cysteine residue. The residues corresponding to the above peptide are wholly contained within the CCL8-binding region of P672_RHIPU transferred in the hybrid evasin P672:EVA1 (SEQ ID 76, see FIG. 5). […] (SEQ ID NO: 90). FIG. 14(A). […] The curve was fitted to the two site-total and non-specific binding model in GraphPad Prism 6. Data are shown as mean and SEM of three independent experiments, with each independent experiment performed as three technical replicates. The affinity constant Kd was calculated in GraphPad Prism from the curve fit with the standard error reported.
FIG. 14(B). […] The measured fluorescence anisotropy (y-axis) of P672_PEP-FITC (50 nM) following binding to a fixed dose (1 μM)) of CCL7, CCL8, CCL18 and CXCL1 (negative control). […] Statistical significance was determined using one-way ANOVA with Sidak's correction for multiple comparisons using Graph Pad Prism 6. **=p<0.005, ****=P<0.00005, ns=not significant.
FIG. 15(C). […] In each case 100 μM (++) or […] (+) of P672_PEP was incubated with P672_PEP-FITC (50 nM)/chemokine (1 μM CCL7 and CCL18; 500 nM CCL8) and the resulting anisotropy measured. […] Experiment carried out in triplicate where each data point is the average of one experiment carried out in technical triplicate. Mean with SEM shown and statistical significance was determined using one-way ANOVA with Sidak's correction for multiple comparisons using Graph Pad Prism 6. *=p<0.05, ***=p<0.0005, ****=P<0.00005, ns=not significant.
Fluorescence polarization assays were performed using a Clariostar (BMG Tech) plate reader with the supplied FITC excitation and emission filters using 96 half area well plates (Corning). The buffer used (FP assay buffer) was 50 mM HEPES, 150 mM NaCl, 0.1% BSA, 0.002% TWEEN-20, 0.2% DMSO, pH 7.4 and the final volume in each well was 30 μL. Polarization was converted to anisotropy using the equation A=(2*P)/(3−P) where P is polarization and A is anisotropy. For each peptide tested the gain was set to 35 mP and adjusted to a well containing fluorescent peptide only. The polarization of the emitted light in the FITC emission channel was then determined. Experiments were performed as two technical and three biological replicates. Screening of P672 peptide fragments was achieved through incubation of each peptide (50 nM) with 1 μM CCL8 (Peprotech) for 30 minutes in FP assay buffer and the resulting anisotropy of the emitted light determined as above. The chemokine cross binding screen was performed by incubating 1 μM chemokine (Peprotech) with 50 nM BK1.1FITC for half an hour in FP assay buffer and the resulting anisotropy of the emitted light determined as above. […] The anisotropy was plotted as a function of CCL8 concentration and fitted to the equation: Y=Bmax*X/(KD+X)+NS*X+Background, where Y is the measured anisotropy, X is the concentration of CCL8 added, Bmax is the maximum binding, KD is the equilibrium dissociation constant, NS is the slope of the nonlinear regression and Background is the anisotropy when no CCL8 is present, in Graph Pad Prism. Displacement assays were carried out with CCL7, CCL8, and CCL18 (Peprotech, 1 μM). […] For all FP assays, the experiments were carried out as two technical and three biological replicates.

Row | SMILES | Fold change (Kd versus WT)
1 | CC(C)[C@H](NC(=O)[C@@H]1CCCN1C(=O)[C@H](CCCCN)NC(=O)[C@H](Cc1ccccc1)NC(=O)[C@H](Cc1ccccc1)NC(=O)[C@H](CC(=O)O)NC(=O)[C@H](CCC(=O)O)NC(=O)[C@H](Cc1ccc(O)cc1)NC(=O)[C@H](CC(=O)O)NC(=O)[C@H](CCC(=O)O)NC(=O)[C@H](CC(=O)O)NC(=O)[C@H](CCC(=O)O)NC(=S)Nc1ccc2c(c1)C(=O)OC21c2ccc(O)cc2Oc2cc(O)ccc21)C(=O)N[C@H](C(=O)N[C@@H](C)C(=O)N[C@@H](Cc1ccc(O)cc1)C(=O)N[C@@H](C)C(N)=O)[C@@H](C)O [F32A] ({FITC}-EDEDYEDFFKPVTAYA-NH2) | 2.3
2 | C[C@H](NC(=O)[C@@H](NC(=O)[C@H](C)NC(=O)[C@@H]1CCCN1C(=O)[C@H](CCCCN)NC(=O)[C@H](Cc1ccccc1)NC(=O)[C@H](Cc1ccccc1)NC(=O)[C@H](CC(=O)O)NC(=O)[C@H](CCC(=O)O)NC(=O)[C@H](Cc1ccc(O)cc1)NC(=O)[C@H](CC(=O)O)NC(=O)[C@H](CCC(=O)O)NC(=O)[C@H](CC(=O)O)NC(=O)[C@H](CCC(=O)O)NC(=S)Nc1ccc2c(c1)C(=O)OC21c2ccc(O)cc2Oc2cc(O)ccc21)[C@@H](C)O)C(=O)N[C@@H](Cc1ccc(O)cc1)C(=O)N[C@@H](Cc1ccccc1)C(N)=O [V28A] ({FITC}-EDEDYEDFFKPATAYF-NH2) | 3.8
3 | CC(C)[C@H](NC(=O)[C@@H]1CCCN1C(=O)[C@H](CCCCN)NC(=O)[C@H](Cc1ccccc1)NC(=O)[C@H](Cc1ccccc1)NC(=O)[C@H](CC(=O)O)NC(=O)[C@H](CCC(=O)O)NC(=O)[C@H](Cc1ccc(O)cc1)NC(=O)[C@H](CC(=O)O)NC(=O)[C@H](CCC(=O)O)NC(=O)[C@H](CC(=O)O)NC(=O)[C@H](C)NC(=S)Nc1ccc2c(c1)C(=O)OC21c2ccc(O)cc2Oc2cc(O)ccc21)C(=O)N[C@H](C(=O)N[C@@H](C)C(=O)N[C@@H](Cc1ccc(O)cc1)C(=O)N[C@@H](Cc1ccccc1)C(N)=O)[C@@H](C)O [E17A] ({FITC}-ADEDYEDFFKPVTAYF-NH2) | 1.2
4 | CC(C)[C@H](NC(=O)[C@@H]1CCCN1C(=O)[C@H](CCCCN)NC(=O)[C@H](Cc1ccccc1)NC(=O)[C@H](Cc1ccccc1)NC(=O)[C@H](CC(=O)O)NC(=O)[C@H](CCC(=O)O)NC(=O)[C@H](Cc1ccc(O)cc1)NC(=O)[C@H](CC(=O)O)NC(=O)[C@H](CCC(=O)O)NC(=O)[C@H](CC(=O)O)NC(=O)[C@H](CCC(=O)O)NC(=S)Nc1ccc2c(c1)C(=O)OC21c2ccc(O)cc2Oc2cc(O)ccc21)C(=O)N[C@@H](C)C(=O)N[C@@H](C)C(=O)N[C@@H](Cc1ccc(O)cc1)C(=O)N[C@@H](Cc1ccccc1)C(N)=O [T29A] ({FITC}-EDEDYEDFFKPVAAYF-NH2) | 2.0
5 | CC(C)[C@H](NC(=O)[C@@H]1CCCN1C(=O)[C@H](CCCCN)NC(=O)[C@H](Cc1ccccc1)NC(=O)[C@H](Cc1ccccc1)NC(=O)[C@H](CC(=O)O)NC(=O)[C@H](C)NC(=O)[C@H](Cc1ccc(O)cc1)NC(=O)[C@H](CC(=O)O)NC(=O)[C@H](CCC(=O)O)NC(=O)[C@H](CC(=O)O)NC(=O)[C@H](CCC(=O)O)NC(=S)Nc1ccc2c(c1)C(=O)OC21c2ccc(O)cc2Oc2cc(O)ccc21)C(=O)N[C@H](C(=O)N[C@@H](C)C(=O)N[C@@H](Cc1ccc(O)cc1)C(=O)N[C@@H](Cc1ccccc1)C(N)=O)[C@@H](C)O [E22A] ({FITC}-EDEDYADFFKPVTAYF-NH2) | 4.0
6 | CC(C)[C@H](NC(=O)[C@@H]1CCCN1C(=O)[C@H](CCCCN)NC(=O)[C@H](Cc1ccccc1)NC(=O)[C@H](Cc1ccccc1)NC(=O)[C@H](CC(=O)O)NC(=O)[C@H](CCC(=O)O)NC(=O)[C@H](Cc1ccc(O)cc1)NC(=O)[C@H](CC(=O)O)NC(=O)[C@H](C)NC(=O)[C@H](CC(=O)O)NC(=O)[C@H](CCC(=O)O)NC(=S)Nc1ccc2c(c1)C(=O)OC21c2ccc(O)cc2Oc2cc(O)ccc21)C(=O)N[C@H](C(=O)N[C@@H](C)C(=O)N[C@@H](Cc1ccc(O)cc1)C(=O)N[C@@H](Cc1ccccc1)C(N)=O)[C@@H](C)O [E19A] ({FITC}-EDADYEDFFKPVTAYF-NH2) | 2.1
